Like-named read-outs stand apart in the source and are kept apart here. Where a SMILES comes first, the peptide text is derived from it. [ ]: non-standard residue; d: D form. The star is where a group is joined. ξ: configuration not given here. ξTic = O=C(O)C1Cc2ccccc2CN1; Cbz = O=C(OCc1ccccc1)*; ξV = CC(C)C(N)C(=O)O; CF3 = FC(F)(F)*
Columns and labels:
Format in all cases: biochemical
Human Leukocyte Elastase = molecular target: T1, Human Leukocyte Elastase (Homo sapiens, UniProt P08246); test: Elastase inhibition in vitro, MeO-Suc-Ala-Ala-Pro-Val-pNA hydrolysis (human sputum elastase)
T1 construct: purchased Elasten Products Co., Pacific, Mo; host or cells: human sputum
T1 sequence (P08246 30-247 limits assumed): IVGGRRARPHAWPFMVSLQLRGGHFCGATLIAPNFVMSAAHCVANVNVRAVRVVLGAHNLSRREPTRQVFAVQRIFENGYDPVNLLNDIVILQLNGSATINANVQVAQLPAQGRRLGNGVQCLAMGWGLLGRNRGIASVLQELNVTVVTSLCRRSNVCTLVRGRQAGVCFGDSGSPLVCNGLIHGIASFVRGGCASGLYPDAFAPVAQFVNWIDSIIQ
Description: The method of K. Nakajima et al., Journal of Biological Chemistry, 254: 4027-4032 was adapted to a microtiter format. The in vitro assay is based upon the hydrolysis of the commercially available (Sigma Chemical Company, St. Louis, Mo.) substrate methoxy O-succinyl-L-alanyl-L-alanyl-L-prolyl-L-valine para - nitroanilide (MeO-Suc-Ala-Ala-Pro-Val-pNA) and the release of para-nitroanilide (pNA), which absorbs at 405 nm.
b. Vmax Kinetic Microtiter Plate Reader, equipped with 405 nm filter (Molecular Devices)
a. Human sputum elastase (HSE) (Elasten Products Co., Pacific, Mo.) dissolved 1 mg/mL in 0.05M sodium chloride and frozen (50 μL aliquots) at -20° C. until used.
b. Stock solution of MeO-Suc-Ala-Ala-Pro-Val-pNA dissolved at 15 mM in dimethylsulfoxide (DMSO) and frozen (4 mL aliquots) at -20° C. until used.
c. Assay buffer: 0.1M tris buffer, pH 7.5 containing 0.5M sodium choloride.
Screening is performed in microtiter plates, using 0.5 mM substrate and monitored on a Microtiter Reader. Enzyme activity (+/- test compound) is determined as the rate of pNA release (linear regression analysis of slope). Inhibitory activity of the test compound is calculated relative to the uninhibited enzyme control, as follows: [formula]
A frozen aliquot of HSE is thawed and diluted with assay buffer to a stock concentration of 0.02 mg/mL (30×assay concentration). […]

Thrombin = Thrombin (Homo sapiens, UniProt P00734); test: Selectivity assay: thrombin; details: selectivity table
Urokinase = Urokinase (Homo sapiens, UniProt P00749); test: Selectivity assay: urokinase; details: selectivity table
Human C1 Esterase = molecular target: T2, Human C1 Esterase (Homo sapiens, UniProt P09871); test: Selectivity assay: human C1 esterase; details: selectivity table
T2 sequence (P09871 438-688 limits assumed): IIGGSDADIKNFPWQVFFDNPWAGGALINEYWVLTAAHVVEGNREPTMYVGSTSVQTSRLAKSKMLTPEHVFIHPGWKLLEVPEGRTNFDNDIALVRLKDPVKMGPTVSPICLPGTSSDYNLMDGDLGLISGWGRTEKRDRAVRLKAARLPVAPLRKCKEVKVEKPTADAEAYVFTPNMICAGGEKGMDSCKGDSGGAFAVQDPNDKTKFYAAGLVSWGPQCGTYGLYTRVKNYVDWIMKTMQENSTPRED
T2 sequence (P09871 16-437 partner limits assumed): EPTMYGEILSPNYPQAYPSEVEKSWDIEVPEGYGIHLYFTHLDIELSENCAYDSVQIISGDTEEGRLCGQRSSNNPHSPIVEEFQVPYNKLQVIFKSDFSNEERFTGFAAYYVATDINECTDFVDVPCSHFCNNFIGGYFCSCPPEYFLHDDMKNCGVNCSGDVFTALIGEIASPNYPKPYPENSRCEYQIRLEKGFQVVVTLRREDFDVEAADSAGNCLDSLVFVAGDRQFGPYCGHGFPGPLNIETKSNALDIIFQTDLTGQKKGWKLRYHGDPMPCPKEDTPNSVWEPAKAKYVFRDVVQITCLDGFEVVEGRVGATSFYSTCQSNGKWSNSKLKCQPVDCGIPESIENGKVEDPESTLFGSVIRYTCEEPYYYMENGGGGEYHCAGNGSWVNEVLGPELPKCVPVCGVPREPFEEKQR

Cathepsin B = Cathepsin B (Homo sapiens, UniProt P07858); test: Selectivity assay: cathepsin B; details: selectivity table
Plasmin = Plasmin (Homo sapiens, UniProt P00747); test: Selectivity assay: plasmin; details: selectivity table
Plasmin, sequence (P00747 581-810 limits assumed, species assumed): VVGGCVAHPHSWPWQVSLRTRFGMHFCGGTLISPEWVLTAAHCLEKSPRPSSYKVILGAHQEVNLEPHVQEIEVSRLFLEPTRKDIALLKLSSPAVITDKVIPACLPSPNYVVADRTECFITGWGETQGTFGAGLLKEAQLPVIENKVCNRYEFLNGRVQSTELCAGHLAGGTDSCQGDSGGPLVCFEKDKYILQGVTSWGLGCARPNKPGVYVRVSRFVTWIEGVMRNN
Plasmin, sequence (P00747 97-580 partner limits assumed, species assumed): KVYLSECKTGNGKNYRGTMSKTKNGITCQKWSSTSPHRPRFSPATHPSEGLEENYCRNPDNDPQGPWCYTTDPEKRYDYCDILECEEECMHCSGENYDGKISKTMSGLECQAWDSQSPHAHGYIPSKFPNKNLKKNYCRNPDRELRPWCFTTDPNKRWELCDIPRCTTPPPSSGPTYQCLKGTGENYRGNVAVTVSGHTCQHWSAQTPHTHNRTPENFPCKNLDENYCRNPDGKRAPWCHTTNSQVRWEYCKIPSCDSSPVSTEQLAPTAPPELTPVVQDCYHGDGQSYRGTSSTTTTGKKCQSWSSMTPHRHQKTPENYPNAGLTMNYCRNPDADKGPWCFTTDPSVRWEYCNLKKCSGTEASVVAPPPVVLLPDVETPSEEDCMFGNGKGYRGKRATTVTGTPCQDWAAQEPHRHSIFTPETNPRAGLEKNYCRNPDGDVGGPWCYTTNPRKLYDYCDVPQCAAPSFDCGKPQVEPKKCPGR

Chymotrypsin = Chymotrypsin (Bos taurus, UniProt P00766); test: Selectivity assay: chymotrypsin; details: selectivity table
Recombitant HIV Protease = molecular target: T3, Recombitant HIV Protease (Human immunodeficiency virus type 1 group M subtype B, UniProt P04585); test: Selectivity assay: recombinant HIV protease; details: selectivity table
T3 construct: Recombitant HIV Protease

[1] = molecular target: Recombitant 3C - Proteinase; test: Selectivity assay: recombinant 3C-proteinase; details: selectivity table

| SMILES | IC50 (Human Leukocyte Elastase; selectivity table, Human Leukocyte Elastase) | IC50 (Thrombin) | IC50 (Urokinase) | IC50 (Human C1 Esterase) | IC50 (Cathepsin B) | IC50 (Plasmin) | IC50 (Chymotrypsin) | IC50 (Recombitant HIV Protease) | IC50 [1] | IC50 (Human Leukocyte Elastase; Table I, in vitro inhibition, 0.5 mM substrate, pH 7.5, read-out: In Vitro IC50) |
| --- | --- | --- | --- | --- | --- | --- | --- | --- | --- | --- |
| CC(C)C(NC(=O)C1Cc2ccccc2CN1C(=O)[C@@H](NC(=O)c1ccc(C(=O)NS(=O)(=O)c2ccc(Cl)cc2)cc1)C(C)C)C(=O)C(F)(F)F (stereo partly drawn) [p-[p-Cl(C6 H4)SO2 NHCO](C6 H4)CO, [[4-(4-Chlorophenyl)sulfonylaminocarbonyl]phenyl-1-oxomethyl]-L-valyl-N-[3-(1,1,1-trifluoro-4-methyl-2-oxopentyl)]-1,2,3,4-tetrahydro-3-isoquinoline-carboxamide] | 0.082 mg/L | > 8.01 µM | > 8.01 µM | > 8.01 µM | > 8.01 µM | > 8.01 µM | > 8.01 µM | > 66.7 µM | > 50 mg/L |  |
| CC(C)C(NC(=O)C1Cc2ccccc2CN1C(=O)[C@@H](NC(=O)OCc1ccccc1)C(C)C)C(=O)C(F)(F)F (stereo partly drawn) [CBZ] (Cbz-Val-[ξTic]-[ξV]-CF3) |  |  |  |  |  |  |  |  |  | < 17.8 µM |
